Here are results for five compounds from patent US8586743B2, “Labeling reagents and methods of their use” (Life Technologies Corporation, priority 2007, dated 2013).

Each structure is given as a SMILES string. Where only a bound is given, the exact number is not on record here.

Series [1] in a line: Hydrolysis half-life by HPLC (percent hydrolysis) at room temperature.
Protocol: (§1) Samples were incubated at room temperature in the indicated solution.
(§2) 2-(6-amino-3-iminio-4,5-disulfonato-3H-xanthen-9-yl)benzoate, comprising an SDP ester was prepared and compared to commercially available 2-(6-amino-3-iminio-4,5-disulfonato-3H-xanthen-9-yl)benzoate comprising a succinimidyl ester (SE) and 2-(6-amino-3-iminio-4,5-disulfonato-3H-xanthen-9-yl)benzoate comprising a TFP for hydrolytic stability in 25 mM Pi buffer pH 8.6.
The conditions of series [2]: buffer, pH 8.6.
Protocol: as §1, §2
The mark [3] stands for this setting: phosphate buffer with imidazole, pH 8.6.

The term half-life denotes how long it takes for the measured level to halve. Take `N=c1ccc2c(-c3ccc(C(=O)Oc4c(Cl)cc(S(=O)(=O)O)cc4Cl)cc3C(=O)O)c3ccc(N)c(S(=O)(=O)O)c3oc-2c1S(=O)(=O)O` [Compound 102]: the half-life in series [1] (DMSO) was 384 h; in series [1] (HEPES buffer, pH 8.2), 159 h; in series [1] (Tris buffer with NaN3, pH 8.6) it was 1.58 h; in series [1] (Tris buffer, pH 7), 1020 h; in series [1] (Tris buffer, pH 8.6), 77 h; in series [1] (borate buffer, pH 8.6), 3.5 h. For the same compound, the half-life in series [1] (setting [3]) was 0.633 h; in series [1] (phosphate buffer, pH 7.2), 245 h; in series [1] (phosphate buffer, pH 8.6), 28 h; in series [1] (water), 504 h. In series [2], the “half-life (hydrolytic stability)” value stood at 28 h.

In series [1] (phosphate buffer, pH 8.6), `N=c1ccc2c(-c3cc(C(=O)Oc4c(Cl)cc(S(=O)(=O)O)cc4Cl)ccc3C(=O)O)c3ccc(N)c(S(=O)(=O)O)c3oc-2c1S(=O)(=O)O` [Compound 104] gave a half-life of 17 h.

In turn, `CC1(C)C(/C=C/C=C/C=C2\N(CCCS(=O)(=O)O)c3ccc(S(=O)(=O)[O-])cc3C2(C)CCCCCC(=O)Oc2c(Cl)cc(S(=O)(=O)O)cc2Cl)=[N+](CCCS(=O)(=O)O)c2ccc(S(=O)(=O)O)cc21` (stereo not shown) [Compound 114] showed a half-life in series [1] (phosphate buffer, pH 8.6) of 1.7 h.

For `N=c1ccc2c(-c3ccc(C(=O)Oc4c(F)c(F)cc(F)c4F)cc3C(=O)O)c3ccc(N)c(S(=O)(=O)O)c3oc-2c1S(=O)(=O)O` [Compound 120, reference compound], the half-life in series [1] (HEPES buffer, pH 8.2) is 6.5 h; in series [1] (Tris buffer with NaN3, pH 8.6), below 0.0167 h; in series [1] (Tris buffer, pH 7), 13.9 h; in series [1] (Tris buffer, pH 8.6), 2.32 h; in series [1] (borate buffer, pH 8.6), below 0.0833 h; in series [1] (setting [3]), below 0.0333 h. Besides, the half-life in series [1] (phosphate buffer, pH 7.2) is 2.88 h; in series [1] (phosphate buffer, pH 8.6) it was 1.3 h.

Compound `CC1(C)C(/C=C/C=C/C=C2\N(CCCS(=O)(=O)O)c3ccc(S(=O)(=O)[O-])cc3C2(C)CCCCCC(=O)ON2C(=O)CCC2=O)=[N+](CCCS(=O)(=O)O)c2ccc(S(=O)(=O)O)cc21` (stereo not shown) [Compound 121, reference compound] showed a half-life in series [1] (phosphate buffer, pH 8.6) of 1.75 h.
